We go through 13 molecules from patent US20210315893A1 (Galapagos NV, priority 2017, published 2021).

Experiment [1] has as its target T1, human GPCR sphingosine 1-phosphate receptor 2 (Homo sapiens, UniProt O95136).
T1 construct: host or cells: CHO
Kind of experiment: S1PR2 antagonist Ca2+ flux assay. The format is cell-based. As to conditions: antagonist mode, CHO-S1PR2 cells, S1P at EC80, Ca2+ fluorescence; read-out: S1P2 EC50 (nM), S1P2 antagonist EC50. In short, it runs like this: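 CHO cells stably expressing human S1PR2, serum-starved 1 h, Fluo8-loaded; compound-evoked Ca2+ fluorescence read 3 min (agonist mode), then after 15 min S1P at EC80 added and read 3 min (antagonist mode). Max/baseline fluorescence ratios normalised to vehicle and S1P EC100 or EC50 controls; EC50 derived.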

The subject of experiment [2] is HFL-1 cells. Kind of experiment: IL8 assay in the presence of Human Serum Albumin. The conditions noted are these: HFL1, read-out: HSA IL8 EC50.
For experiment [3], the target named is T2, human GPCR sphingosine 1-phosphate receptor 5 (Homo sapiens, UniProt Q9H228).
T2 construct: host or cells: CHO
As to the kind of experiment: S1PR5 selectivity Ca2+ flux assay (antagonist readout). As to conditions: CHO cells overexpressing human S1PR5 and Gq, agonist at EC80 (20 nM), read-out: S1P5 EC50 (nM), S1P5 antagonist EC50. The format is cell-based. A digest of the protocol: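 CHO cells stably coexpressing human S1PR5 and Gq were serum-starved, Fluo 8-loaded and preincubated 15 min at 37° C with compound. They were then stimulated at EC80 with an S1PR5-specific agonist, and calcium fluorescence was recorded for 3 min. Peak/baseline ratios were normalized to controls and fitted to a four-parameter IC50 equation.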
(In general: Calcium assays in cells follow changes in intracellular calcium, usually with a dye or a luminescent sensor.)

Experiment [4] concerns the target T3, human GPCR sphingosine 1-phosphate receptor 1 (Homo sapiens, UniProt P21453).
T3 construct: host or cells: CHO
Kind of experiment: S1PR1 selectivity Ca2+ flux assay (antagonist readout). The format is cell-based. As to conditions: antagonist readout, CHO cells overexpressing human S1PR1 and Gq, S1P at EC80 (6 nM); read-out: S1P1 EC50 (nM), S1P1 antagonist EC50. A digest of the protocol:
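CHO cells stably overexpressing human S1PR1, starved 1 h in 0.1% FAF BSA medium, then Fluo 8 dye-loaded. Compound added, then after 15 min at 37 °C, S1P-evoked Ca2+ flux recorded. Maximal signal/background ratio normalized to controls as % inhibition; IC50 from four-parameter logistic fit.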

Experiment [5] relates to HFL-1 cells. As to the kind of experiment: IL-8 production assay (S1P induced IL-8). The experiment is classed as cell-based. As to conditions: Homo sapiens, HFL1; S1P (1 μM) induced IL-8 in HFL-1 cells, starvation medium without HSA; read-out: IL8 EC50. In short, it runs like this:
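HFL-1 human fetal lung fibroblasts were starved in F12K/1% FBS, then given compound for 1 h (10-point, 1/3 dilution, 30 μM top, 0.3% DMSO final). S1P was added at 1 μM final for 16–24 h at 37 °C, and secreted IL-8 in supernatant quantified by ELISA.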

The target in experiment [6] is T4, S1PR2 (Homo sapiens, UniProt O95136).
T4 construct: expressed in transfected cells
As to the kind of experiment: S1PR2 binding assay (competition with radioactively labeled S1P, SpA). The conditions noted are these: membranes from stable cell line over expressing S1PR2, SpA beads; read-out: S1P2 EC50 (nM), S1PR2 binding EC50. A digest of the protocol: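 Competition with [3H]S1P for membranes from a stable S1PR2-overexpressing cell line, 20 μg/well, captured on PVT-WGA SPA beads, in 20 mM Tris pH 7.5, 10 mM MgCl2, 100 mM NaCl, 0.4% fatty-acid-free BSA, 1 mM Na3VO4. 2 h at room temperature, then centrifugation and scintillation counting.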

Bounds are passed on as bounds.

T2 sequence (Q9H228 whole entry): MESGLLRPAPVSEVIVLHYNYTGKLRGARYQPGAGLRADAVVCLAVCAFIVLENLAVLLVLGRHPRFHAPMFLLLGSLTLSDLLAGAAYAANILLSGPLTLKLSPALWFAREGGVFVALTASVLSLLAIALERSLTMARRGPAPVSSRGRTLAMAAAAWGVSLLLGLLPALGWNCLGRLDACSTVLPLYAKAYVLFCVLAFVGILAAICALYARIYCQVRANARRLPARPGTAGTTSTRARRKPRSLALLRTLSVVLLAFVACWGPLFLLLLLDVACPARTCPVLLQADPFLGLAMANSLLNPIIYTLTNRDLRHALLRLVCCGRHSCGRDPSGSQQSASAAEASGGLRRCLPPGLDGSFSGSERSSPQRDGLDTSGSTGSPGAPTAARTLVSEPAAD
T3 sequence (P21453 whole entry): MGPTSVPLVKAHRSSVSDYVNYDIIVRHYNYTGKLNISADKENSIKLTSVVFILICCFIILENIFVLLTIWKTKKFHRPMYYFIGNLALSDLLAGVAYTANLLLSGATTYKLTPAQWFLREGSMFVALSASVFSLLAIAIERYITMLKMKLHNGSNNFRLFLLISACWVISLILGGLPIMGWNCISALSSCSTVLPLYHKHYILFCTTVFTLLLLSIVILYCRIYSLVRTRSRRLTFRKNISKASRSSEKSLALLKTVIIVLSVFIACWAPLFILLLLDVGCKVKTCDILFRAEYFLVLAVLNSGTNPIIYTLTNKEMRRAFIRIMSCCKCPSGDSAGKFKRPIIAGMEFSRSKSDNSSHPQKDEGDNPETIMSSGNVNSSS
T1 sequence (O95136 whole entry): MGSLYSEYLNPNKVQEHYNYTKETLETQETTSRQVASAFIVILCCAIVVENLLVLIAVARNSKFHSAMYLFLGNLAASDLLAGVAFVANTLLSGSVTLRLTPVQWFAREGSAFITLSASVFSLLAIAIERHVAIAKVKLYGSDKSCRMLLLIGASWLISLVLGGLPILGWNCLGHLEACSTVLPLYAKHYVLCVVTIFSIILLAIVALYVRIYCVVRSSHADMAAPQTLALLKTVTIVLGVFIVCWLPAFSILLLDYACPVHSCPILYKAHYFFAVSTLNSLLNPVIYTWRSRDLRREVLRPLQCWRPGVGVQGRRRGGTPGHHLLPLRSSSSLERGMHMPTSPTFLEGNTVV
T4 sequence (O95136 whole entry): as above

Regarding `CN(C)C1CCN(C(=O)Cn2nc(Cc3nc4cc(OCC(F)F)c(C#N)cc4[nH]3)c3ccccc3c2=O)C1` (stereo not drawn) [Compound 176, 6-(2,2-difluoroethoxy)-2-[[3-[2-[3-(dimethylamino)pyrrolidin-1-yl]-2-oxo-ethyl]-4-oxo-phthalazin-1-yl]methyl]-3H-benzimidazole-5-carbonitrile], the EC50 in experiment [1] was 489 nM; in experiment [2] it was 618 nM; in experiment [3], 19800 nM; in experiment [4], no less than 19800 nM; in experiment [5], 116 nM; in experiment [6], 386 nM.
Take `C[C@@H]1CN(C(=O)Cn2nc(Cc3nc4cc(OCC(F)F)c(C#N)cc4[nH]3)c3ccccc3c2=O)C[C@H](C)O1` [Compound 177, 6-(2,2-difluoroethoxy)-2-[[3-[2-[(2S,6R)-2,6-dimethylmorpholin-4-yl]-2-oxo-ethyl)-4-oxo-phthalazin-1-yl]methyl]-3H-benzimidazole-5-carbonitrile]: the EC50 was 57.1 nM in experiment [1]; 120 nM in experiment [2]; 19800 nM in experiment [3]; no less than 19800 nM in experiment [4]; 18.6 nM in experiment [5]; 124 nM in experiment [6].
As for `N#Cc1cc2[nH]c(Cc3nn(CC(=O)NC4CCOC4)c(=O)c4ccccc34)nc2cc1OCC(F)F` (stereo not drawn) [Compound 178, 2-[4-[[6-cyano-5-(2,2-difluoroethoxy)-1H-benzimidazol-2-yl]methyl]-1-oxo-phthalazin-2-yl]-N-THF-3-yl-acetamide], the EC50 in experiment [1] was 118 nM; in experiment [2] it was 504 nM; in experiment [3] it was 19800 nM; in experiment [4] it was no less than 19800 nM; in experiment [5], 160 nM; in experiment [6] it was 188 nM.
With `O=C(Cn1nc(Cc2nc3cc(OCC(F)F)c(F)cc3[nH]2)c2c(c1=O)CCCC2)N1CCOCC1` [Compound 179, 4-[[5-(2,2-difluoroethoxy)-6-fluoro-1H-benzimidazol-2-yl]methyl]-2-(2-morpholino-2-oxo-ethyl)-5,6,7,8-tetrahydrophthalazin-1-one], the EC50 was 107 nM in experiment [1]; 353 nM in experiment [2]; 19800 nM in experiment [3]; no less than 19800 nM in experiment [4]; 352 nM in experiment [5]; 207 nM in experiment [6].
With `N#Cc1cc2nc(Cc3nn(CC(=O)N4CCC[C@H]4CO)c(=O)c4ccccc34)[nH]c2cc1OCC(F)F` [Compound 198, 6-(2,2-difluoroethoxy)-2-[[3-[2-[(2S)-2-(hydroxymethyl)pyrrolidin-1-yl]-2-oxo-ethyl]-4-oxo-phthalazin-1-yl]methyl]-1H-benzimidazole-5-carbonitrile], the EC50 in experiment [1] was 416 nM; in experiment [2], 210 nM; in experiment [3] it was 19800 nM; in experiment [4] it was no less than 19800 nM; in experiment [5], 74.8 nM; in experiment [6], 486 nM.
As for `CC1(O)CCN(C(=O)Cn2nc(Cc3nc4cc(OCC(F)F)c(C#N)cc4[nH]3)c3ccccc3c2=O)C1` (stereo not drawn) [Compound 201, 6-(2,2-difluoroethoxy)-2-[[3-[2-(3-hydroxy-3-methyl-pyrrolidin-1-yl)-2-oxo-ethyl]-4-oxo-phthalazin-1-yl]methyl]-3H-benzimidazole-5-carbonitrile], the EC50 in experiment [1] came to 44.8 nM; in experiment [2], 152 nM; in experiment [3], 19800 nM; in experiment [4] it was 13200 nM; in experiment [5], 63.8 nM; in experiment [6], 138 nM.
In the case of `CN(C)C1CCN(C(=O)Cn2nc(Cc3nc4cc(C#N)c(OCC(F)F)cc4[nH]3)c3c(c2=O)CCCC3)C1` (stereo not drawn) [Compound 204, 6-(2,2-difluoroethoxy)-2-[[3-[2-[3-(dimethylamino)pyrrolidin-1-yl]-2-oxo-ethyl]-4-oxo-5,6,7,8-tetrahydrophthalazin-1-yl]methyl]-1H-benzimidazole-5-carbonitrile], the EC50 in experiment [1] is 117 nM; in experiment [2], 546 nM; in experiment [3] it was 19800 nM; in experiment [4], no less than 19800 nM; in experiment [5], 120 nM; in experiment [6], 296 nM.
For the molecule `N#Cc1cc2nn(Cc3nn(CC(=O)NC4CCCC4)c(=O)c4ccccc34)cc2cc1OCC(F)F` [Compound 208, 2-[4-[[6-cyano-5-(2,2-difluoroethoxy)indazol-2-yl)methyl]-1-oxo-phthalazin-2-yl]-N-cyclopentyl-acetamide], the EC50 in experiment [1] is 10800 nM; in experiment [2], 3320 nM; in experiment [3] it was 19800 nM; in experiment [4], no less than 19800 nM; in experiment [5], 9950 nM; in experiment [6], 1510 nM.
`N#Cc1cc2nn(Cc3nn(CC(=O)N4CCOCC4)c(=O)c4ccccc34)cc2cc1OCC1CC1` [Compound 209]: the EC50 in experiment [1] was 194 nM; in experiment [2] it was 382 nM; in experiment [3] it was 19800 nM; in experiment [4] it was no less than 19800 nM; in experiment [5], 123 nM; in experiment [6] it was 235 nM.
Turning to `N#Cc1cc2[nH]c(Cc3nn(CC(=O)N4C[C@H](O)[C@@H](O)C4)c(=O)c4ccccc34)nc2cc1OCC(F)F` [Compound 211, 6-(2,2-difluoroethoxy)-2-[[3-[2-[(3S,4S)-3,4-dihydroxypyrrolidin-1-yl]-2-oxo-ethyl]-4-oxo-phthalazin-1-yl]methyl]-3H-benzimidazole-5-carbonitrile], the EC50 was 39.7 nM in experiment [1]; 159 nM in experiment [2]; 19800 nM in experiment [3]; no less than 19800 nM in experiment [4]; 46.5 nM in experiment [5]; 142 nM in experiment [6].
As for `N#Cc1cc2[nH]c(Cc3nn(CC(=O)N4CCC(O)C(F)(F)C4)c(=O)c4ccccc34)nc2cc1OCC(F)F` (stereo not drawn) [Compound 212], the EC50 in experiment [1] was 19.2 nM; in experiment [2] it was 64 nM; in experiment [3], 19800 nM; in experiment [4], no less than 19800 nM; in experiment [5], 10.4 nM; in experiment [6], 65.6 nM.
For the molecule `N#Cc1cc2[nH]c(Cc3nn(CC(=O)N4CCC(O)(C5CC5)CC4)c(=O)c4ccccc34)nc2cc1OCC(F)F` [Compound 213, 2-[[3-[2-(4-cyclopropyl-4-hydroxy-1-piperidyl)-2-oxo-ethyl]-4-oxo-phthalazin-1-yl)methyl]-6-(2,2-difluoroethoxy)-3H-benzimidazole-5-carbonitrile], the EC50 in experiment [1] is 41.4 nM; in experiment [2], 178 nM; in experiment [3], 19800 nM; in experiment [4] it was no less than 19800 nM; in experiment [5], 70.7 nM; in experiment [6], 159 nM.
As for `N#Cc1cc2[nH]c(Cc3nn(CC(=O)N4CCC(O)(C5CC5)C4)c(=O)c4ccccc34)nc2cc1OCC(F)F` (stereo not drawn) [Compound 214, 2-[[3-[2-(3-cyclopropyl-3-hydroxy-pyrrolidin-1-yl)-2-oxo-ethyl]-4-oxo-phthalazin-1-yl]methyl]-6-(2,2-difluoroethoxy)-3H-benzimidazole-5-carbonitrile], the EC50 in experiment [1] was 34.6 nM; in experiment [2] it was 33.4 nM; in experiment [3], 19800 nM; in experiment [4], no less than 19800 nM; in experiment [5] it was 7.04 nM; in experiment [6] it was 124 nM.

Broadly, the EC50 is the concentration giving half of the maximal effect.
